We go through 1 compound from ChEMBL document CHEMBL1130935, “Synthesis of a paclitaxel isomer: C-2-acetoxy-C-4-benzoate paclitaxel” (Bioorg Med Chem Lett, 1998).

This test concerns the target Tubulin alpha chain (Sus scrofa) (UniProt P02550). Nature of the test: Compound was tested for inhibitory activity against tubulin by tubulin polymerization assay; Inactive. It counts as functional.

Activity calls are given as the source filed them. No cut-off for these calls is given here.

Tubulin alpha chain (Sus scrofa), sequence (P02550 whole entry, looked up): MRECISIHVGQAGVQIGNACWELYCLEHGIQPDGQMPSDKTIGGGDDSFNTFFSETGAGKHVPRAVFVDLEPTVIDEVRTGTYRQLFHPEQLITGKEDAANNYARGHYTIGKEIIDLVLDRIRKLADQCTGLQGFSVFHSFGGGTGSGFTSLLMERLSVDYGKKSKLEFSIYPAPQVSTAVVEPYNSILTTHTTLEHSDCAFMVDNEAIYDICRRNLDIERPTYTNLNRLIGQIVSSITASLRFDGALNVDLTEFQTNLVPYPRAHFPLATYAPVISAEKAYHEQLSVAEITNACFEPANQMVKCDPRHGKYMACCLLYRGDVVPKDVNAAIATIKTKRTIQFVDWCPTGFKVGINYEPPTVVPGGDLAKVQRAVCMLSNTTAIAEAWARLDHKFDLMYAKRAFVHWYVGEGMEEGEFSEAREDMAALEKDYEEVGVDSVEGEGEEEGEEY

`CC(=O)O[C@H]1C(=O)[C@]2(C)[C@@H](O)CC3OC[C@@]3(OC(=O)c3ccccc3)[C@H]2[C@H](OC(C)=O)[C@]2(O)C[C@H](OC(=O)[C@H](O)[C@@H](NC(=O)c3ccccc3)c3ccccc3)C(C)=C1C2(C)C` (stereo partly specified): the result was inactive.
